Test results as given in article PMC12363950 (bioRxiv, 2025).

Target: CRAF (Homo sapiens, UniProt P04049, Y340D/Y341D)

Question: How did the “X-ray crystal structure, 2.91 Å” value turn out when `CCCS(=O)(=O)Nc1ccc(F)c(C(=O)c2c[nH]c3ncc(Cl)cc23)c1F` [PLX4720] was run?
Answer: The value was “The structure reveals clear electron density for both PLX4720 and CH5126766”.
